The results in this text go back to ChEMBL document CHEMBL1201862, “PubChem BioAssay data set” (2004).

Active and inactive are the calls of the source. Some results are limits rather than exact numbers.

Assay [1] is described as follows: inhibitors of HIV Env-driven cell fusion, dose response, cherry-pick (AID 652057). Format: functional, cell-based.
Assay [2] in a line: ZM109 Env clade C HIV-1 fusion inhibitors, dose response, HeLa effector, CEM target cells, luciferase, cherry-pick (AID 652058). In kind it is functional, cell-based.
Assay [3] can be described thus: off-target signal loss in HeLa-CEM21 co-culture – HeLa F-luc CTL cells, cherry-picked, counter-screen for HIV-1 Env fusion inhibitor project, dose response (AID 652040).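 Further: potency for signal decrease marking cytotoxic or nonspecific inhibition.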 Format: functional, cell-based.
Assay [4] is described as follows: inhibitors of clade B AD8 Env fusion, dose response, cell-based, cherry-pick (AID 652062).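 Further: luciferase signal from cell-cell fusion driven by HIV-1 clade B AD8 Env; potency is for inhibitors of fusion seen as a drop in luminescence.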 Format: functional.
The target of assay [5] is T1, Polyadenylate-binding protein 1 (Homo sapiens, UniProt P11940). The assay is described as follows: PABP1 MLLE–PAM2 interaction inhibitors, dose response, miRNA deadenylation inhibitor project, biochemical, fluorescence polarization, Cy5-PAM2 peptide, secondary (AID 602260). Format: functional. Particulars: read-out: IC50_Mean.
T1 sequence (P11940 whole entry): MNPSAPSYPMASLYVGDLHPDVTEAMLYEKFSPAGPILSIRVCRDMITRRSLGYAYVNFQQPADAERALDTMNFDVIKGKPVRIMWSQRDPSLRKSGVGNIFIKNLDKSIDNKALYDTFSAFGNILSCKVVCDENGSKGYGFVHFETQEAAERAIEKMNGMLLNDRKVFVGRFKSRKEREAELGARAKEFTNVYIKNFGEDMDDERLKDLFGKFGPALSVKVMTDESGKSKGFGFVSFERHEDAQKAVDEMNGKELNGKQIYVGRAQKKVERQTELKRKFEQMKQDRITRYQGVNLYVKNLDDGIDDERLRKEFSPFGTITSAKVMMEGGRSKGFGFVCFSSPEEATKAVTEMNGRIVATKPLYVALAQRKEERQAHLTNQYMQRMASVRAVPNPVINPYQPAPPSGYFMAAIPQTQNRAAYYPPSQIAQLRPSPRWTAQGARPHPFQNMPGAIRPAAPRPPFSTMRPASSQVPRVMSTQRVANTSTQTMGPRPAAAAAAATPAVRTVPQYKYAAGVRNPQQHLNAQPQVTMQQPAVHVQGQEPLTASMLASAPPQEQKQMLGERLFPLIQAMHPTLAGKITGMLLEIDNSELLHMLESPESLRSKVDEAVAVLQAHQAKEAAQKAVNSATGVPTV
Assay [6] deals with T1, Polyadenylate-binding protein 1. The assay is described as follows: PABP1 MLLE–PAM2 binding inhibitor potency, dose response, biochemical, fluorescence polarization, FITC-PAM2 peptide (AID 602259). Particulars: read-out: IC50_Mean. Format: functional.
Assay [7] addresses Eukaryotic translation initiation factor 4E (Mus musculus, UniProt P63073). Nature of the assay: eIF4E–eIF4G protein interaction inhibitors, dose response, biochemical, TR-FRET (AID 855).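 Further: potency for disrupting eIF4E binding to eIF4GI seen as loss of FRET.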 In kind it is functional.
Assay [8] deals with T2, RNA-binding protein pos-1 (Caenorhabditis elegans, UniProt G5EF15).
T2 sequence (G5EF15 whole entry): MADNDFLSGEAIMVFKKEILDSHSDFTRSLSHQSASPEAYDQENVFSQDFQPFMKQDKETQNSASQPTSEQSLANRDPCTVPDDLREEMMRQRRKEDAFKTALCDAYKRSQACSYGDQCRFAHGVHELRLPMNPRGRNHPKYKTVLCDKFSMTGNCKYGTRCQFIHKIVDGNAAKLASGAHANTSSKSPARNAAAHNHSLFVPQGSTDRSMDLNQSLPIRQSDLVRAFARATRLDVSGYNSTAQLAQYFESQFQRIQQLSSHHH
Nature of the assay: inhibitors of POS-1/mex-3 RNA binding, dose response, biochemical, fluorescence polarization (AID 1964).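 Further: purified POS-1 fused to maltose binding protein made in E. coli; potency of compounds blocking POS-1 binding to fluorescent RNA.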

The target of assay [9] is T3, Zinc finger protein mex-5 (Caenorhabditis elegans, UniProt Q9XUB2).
T3 sequence (Q9XUB2 whole entry): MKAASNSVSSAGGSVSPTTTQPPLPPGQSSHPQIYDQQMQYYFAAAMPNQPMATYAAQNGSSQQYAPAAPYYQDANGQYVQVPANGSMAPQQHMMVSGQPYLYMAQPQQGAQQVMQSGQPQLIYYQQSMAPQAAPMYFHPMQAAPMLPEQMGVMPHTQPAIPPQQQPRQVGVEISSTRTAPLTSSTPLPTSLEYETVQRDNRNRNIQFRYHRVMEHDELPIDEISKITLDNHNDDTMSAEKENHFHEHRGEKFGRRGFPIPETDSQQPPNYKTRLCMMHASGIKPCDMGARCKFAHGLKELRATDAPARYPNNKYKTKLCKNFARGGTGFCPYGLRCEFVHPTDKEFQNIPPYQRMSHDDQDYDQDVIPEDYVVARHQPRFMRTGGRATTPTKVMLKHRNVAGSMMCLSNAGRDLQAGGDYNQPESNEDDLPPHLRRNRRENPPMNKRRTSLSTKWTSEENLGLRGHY
The assay is described as follows: MEX-5/TCR-2 RNA interaction inhibitors, dose response, biochemical, C. elegans, fluorescence polarization (AID 1960).

A short description of assay [10]: Luminescence Cell-Based Dose Retest to Confirm Inhibitors of Cancer Stem Cells. [Related pubchem assays (depositor defined):AID2717, AID2721]. In kind it is functional. Particulars: Homo sapiens.
Assay [11] deals with Induced myeloid leukemia cell differentiation protein Mcl-1 (Homo sapiens, UniProt Q07820). Format: functional.
Induced myeloid leukemia cell differentiation protein Mcl-1, sequence (Q07820 whole entry): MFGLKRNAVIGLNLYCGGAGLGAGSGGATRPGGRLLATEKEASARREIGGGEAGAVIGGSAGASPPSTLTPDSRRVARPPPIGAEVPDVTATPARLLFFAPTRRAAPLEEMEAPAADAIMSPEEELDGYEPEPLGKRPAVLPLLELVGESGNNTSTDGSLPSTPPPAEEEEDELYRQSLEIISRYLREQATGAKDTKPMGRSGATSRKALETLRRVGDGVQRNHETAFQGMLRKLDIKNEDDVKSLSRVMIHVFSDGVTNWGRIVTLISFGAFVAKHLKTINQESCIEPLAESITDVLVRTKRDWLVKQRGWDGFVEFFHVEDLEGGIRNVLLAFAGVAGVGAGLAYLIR
A further assay concerns the target Nonstructural protein 1 (Influenza A virus, UniProt Q194T2). Format: functional, Influenza A virus (A/California/07/2009(H1N1)).
The target in assay [12] is T4, Rac GTPase-activating protein 1 (Homo sapiens, UniProt Q9H0H5).
T4 sequence (Q9H0H5 whole entry): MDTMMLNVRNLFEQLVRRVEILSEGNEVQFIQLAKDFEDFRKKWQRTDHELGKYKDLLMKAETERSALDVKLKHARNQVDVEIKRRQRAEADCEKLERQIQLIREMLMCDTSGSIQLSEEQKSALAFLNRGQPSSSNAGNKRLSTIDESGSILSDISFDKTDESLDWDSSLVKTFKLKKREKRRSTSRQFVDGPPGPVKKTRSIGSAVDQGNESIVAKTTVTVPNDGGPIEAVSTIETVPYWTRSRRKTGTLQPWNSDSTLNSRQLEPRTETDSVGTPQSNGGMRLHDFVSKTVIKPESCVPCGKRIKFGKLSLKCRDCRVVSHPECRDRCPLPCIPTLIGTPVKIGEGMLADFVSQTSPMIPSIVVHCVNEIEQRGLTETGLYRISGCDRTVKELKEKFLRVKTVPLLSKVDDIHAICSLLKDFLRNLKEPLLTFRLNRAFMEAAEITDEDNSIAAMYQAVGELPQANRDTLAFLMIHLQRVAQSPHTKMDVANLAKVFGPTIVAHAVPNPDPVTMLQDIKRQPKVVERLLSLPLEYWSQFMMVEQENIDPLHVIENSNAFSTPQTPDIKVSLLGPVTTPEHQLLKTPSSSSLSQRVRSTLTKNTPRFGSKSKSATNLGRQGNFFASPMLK
Nature of the assay: MgcRacGAP GTPase-activating activity inhibitors, confirmation, biochemical, ADP Hunter fluorescence, primary and confirmatory (AID 624330). Format: functional.

Assay [13] is described as follows: inhibitors of intracellular T. cruzi replication, confirmation, NIH3T3 host cells, beta-gal luminescence (AID 2044).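 Further: intracellular parasites grown in NIH/3T3 mouse fibroblasts as host cells; luminescent beta-galactosidase reporter signal from transgenic T. cruzi replicating inside host cells; inhibitors lower the luminescence signal.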 Format: functional, cell-based.
The nature of assay [14]: cytotoxicity toward NIH3T3 fibroblasts, dose response, counter-screen, cell-based, ATP luminescence, mouse fibroblasts (AID 2010).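 Further: cells exposed to compound for about 90 hours before reading.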 Format: functional.
In assay [15] the target is T5, Calpain-2 catalytic subunit (Sus scrofa, UniProt P43367).
T5 sequence (P43367 whole entry): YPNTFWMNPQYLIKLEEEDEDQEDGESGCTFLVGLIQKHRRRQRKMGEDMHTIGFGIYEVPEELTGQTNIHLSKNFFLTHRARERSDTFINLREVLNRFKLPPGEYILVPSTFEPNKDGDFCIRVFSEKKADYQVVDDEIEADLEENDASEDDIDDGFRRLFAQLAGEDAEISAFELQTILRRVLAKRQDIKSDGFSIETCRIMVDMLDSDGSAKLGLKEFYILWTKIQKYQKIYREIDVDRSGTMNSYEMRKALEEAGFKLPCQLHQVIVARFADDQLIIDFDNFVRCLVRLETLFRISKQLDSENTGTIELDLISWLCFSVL
The assay is described as follows: pig calpain II inhibitor potency, dose response, biochemical, fluorogenic peptide substrate (AID 1420). Format: functional.

The target in a further assay is T6, Protein skinhead-1 (Caenorhabditis elegans, UniProt P34707).
T6 sequence (P34707 whole entry): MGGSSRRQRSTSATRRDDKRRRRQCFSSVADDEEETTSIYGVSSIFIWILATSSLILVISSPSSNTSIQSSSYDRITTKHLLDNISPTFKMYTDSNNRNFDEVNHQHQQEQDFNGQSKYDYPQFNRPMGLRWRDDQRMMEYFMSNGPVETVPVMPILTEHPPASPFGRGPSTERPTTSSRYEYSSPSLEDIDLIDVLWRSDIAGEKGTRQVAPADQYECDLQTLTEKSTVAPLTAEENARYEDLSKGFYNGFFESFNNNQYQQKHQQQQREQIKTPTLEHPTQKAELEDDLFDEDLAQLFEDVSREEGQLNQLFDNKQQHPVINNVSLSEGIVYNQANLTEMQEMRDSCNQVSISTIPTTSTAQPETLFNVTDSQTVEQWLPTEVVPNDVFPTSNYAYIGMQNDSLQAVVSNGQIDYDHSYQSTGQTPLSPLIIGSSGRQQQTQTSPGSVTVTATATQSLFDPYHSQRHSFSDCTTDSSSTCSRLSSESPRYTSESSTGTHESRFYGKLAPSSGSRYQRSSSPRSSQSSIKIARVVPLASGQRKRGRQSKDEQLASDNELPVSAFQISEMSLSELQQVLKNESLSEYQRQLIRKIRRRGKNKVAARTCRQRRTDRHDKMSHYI
In kind it is functional.

A short description of assay [16]: NIH-3T3 fibroblast cytotoxicity, dose response, cytotoxicity control, cell-based, fluorescence, Alamar Blue, secondary assay (AID 2327).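 Further: NIH-3T3 mouse fibroblasts cultured with fluconazole at 8 µg/mL.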 Format: functional.
A short description of assay [17]: C. albicans growth with fluconazole, confirmation, fluorescence, retest (AID 2467). In kind it is functional, cell-based.

Eukaryotic translation initiation factor 4E, sequence (P63073 whole entry): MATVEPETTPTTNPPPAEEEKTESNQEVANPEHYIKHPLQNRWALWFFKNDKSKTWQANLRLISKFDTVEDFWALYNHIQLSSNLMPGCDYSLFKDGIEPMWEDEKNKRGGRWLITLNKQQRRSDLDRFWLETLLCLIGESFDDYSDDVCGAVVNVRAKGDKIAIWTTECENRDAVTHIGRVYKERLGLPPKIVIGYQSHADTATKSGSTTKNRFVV
Nonstructural protein 1, sequence (Q194T2 whole entry): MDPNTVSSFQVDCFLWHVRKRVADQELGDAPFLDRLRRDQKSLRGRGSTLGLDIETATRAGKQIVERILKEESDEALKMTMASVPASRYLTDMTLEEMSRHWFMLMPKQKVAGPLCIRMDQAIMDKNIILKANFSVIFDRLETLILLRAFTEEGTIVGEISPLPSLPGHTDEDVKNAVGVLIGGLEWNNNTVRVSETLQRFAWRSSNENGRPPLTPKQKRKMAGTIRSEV

`CN(C)C(=O)CCC(=O)N1CCCC(C(=O)c2ccc3c4c(cccc24)CC3)C1` (configuration not stated): the AC50 was 0.498 µM (active) in [1], 0.53 µM (active) in assay [2], 0.753 µM (active) in assay [3] and 2.71 µM (active) in [4].
As for `CN=C(S)SCCOc1ccccc1`, the IC50 in assay [5] and in [6] was > 66 µM (inactive) each time.
On to `CC1=CC2=NC(=O)CC(C)(C(=O)N(CC(=O)NC3CCCC3)c3cc(C)cc(C)c3)N2C=C1` (configuration not stated), for which, in [7], the IC50 is 50 µM (inactive).
Take `COc1ccc(CCNC(=O)c2nn(C)c3c2CS(=O)(=O)c2ccccc2-3)cc1OC`: the EC50 in assay [8] and in assay [9] was > 300 µM (not active) throughout.
Turning to `Cc1cc(C)n2nc(C(=O)NCc3ccccc3)cc2n1`, in [7], the IC50 is > 64 µM (inactive).
On to `Cc1cc([N+](=O)[O-])ccc1-c1ccc(/C=N/NC(=O)c2ccc(Br)o2)o1`, for which the EC50 in assay [8] was 19.7 µM (active); in assay [9], 5.51 µM (active). Besides, the AC50 in [10] was 2.35 µM (active).
With `O=C(O)c1ccccc1N/N=C/c1c(Sc2nnnn2-c2ccccc2)nc2ccccn2c1=O`, the EC50 is > 300 µM (not active) in assay [8] and 116 µM (active) in assay [9]. Also, in [11], the IC50 was 2.58 µM (active).
As for `CCN(CC)c1ccc(/N=C/c2c(C)[nH]c3ccccc23)cc1`, the IC50 in [7] is > 64 µM (inactive); at Nonstructural protein 1, 29.3 µM (active); in assay [12] it was 43.7 µM (active).
As for `COc1ccc(C(=S)N2CCC(C(N)=O)CC2)cc1Br`, the IC50 in [5] and in assay [6] was > 66 µM (inactive) throughout.
As for `CN1C(=O)C(=Cc2ccc(SC3CCCCC3)o2)C(=O)N(C)C1=O`, the concentration giving a half-maximal response (EC50) in [8] and in [9] was > 300 µM (not active) each time.
As for `CCOc1cc(C(=O)Nc2ccc3c4c(cccc24)C(=O)N3CC)cc(OCC)c1OCC`, in assay [7], the IC50 was > 64 µM (inactive).
`Nc1ccc(N(c2ccccc2)c2ccc(N)cc2)cc1`: the values for the EC50 in [13] and in assay [14] were 1.81 µM (active) and > 60 µM (not active), respectively. Moreover, the results for the IC50 (in assay [7]; at Nonstructural protein 1; in [12]) were > 64 µM (inactive), 9.26 µM (active) and 8.57 µM (active), respectively.
In the case of `COc1ccc2c(c1)OC[C@H]1[C@H]2N2C(=O)CN(Cc3ccc(C)cc3)C(=O)[C@@]2(C)[C@H]1c1ccccc1`, the AC50 was 7.77 µM (active) in assay [1], 15.5 µM (active) in assay [2], 26.9 µM (active) in assay [3] and 5.83 µM (active) in assay [4].
For the molecule `CCOC(=S)SCc1cn2cccc(C)c2n1`, the IC50 in assay [5] and in assay [6] was > 66 µM (inactive) each time.
In the case of `N#Cc1c(NC(=O)c2cccc(S(=O)(=O)Nc3ccc(C(=O)O)cc3)c2)sc2c1CCCC2`, the results for the IC50 in [15] and in assay [11] were 13.7 µM (not active) and 6.52 µM (active), respectively.
With `CC1CCCCN1C(=O)Cn1nnc(-c2cccnc2)n1` (configuration not stated), the IC50 in [5] was > 66 µM (inactive); in [6], 17 µM (active).
`Cc1cc2cc(CNC(=O)Nc3ccccc3)ccc2n1C`: the IC50 in [5] was > 66 µM (inactive); in assay [6] it was > 66 µM (inactive); on Protein skinhead-1, > 100 µM (inactive).
Take `CC(=O)N1CCN(c2ccc(NC(=S)NC(=O)COc3ccc(C(C)(C)C)cc3)cc2)CC1`: the IC50 in [5] and in assay [6] was > 66 µM (inactive) each time.
`O=C(N/N=C/c1sc(N2CCOCC2)nc1-c1ccccc1)c1cccc(S(=O)(=O)N2CCOCC2)c1`: the EC50 is > 150 µM (inactive) in assay [16] and > 38 µM (not active) in [17]. The AC50 in assay [1] is 4.02 µM (active); in assay [2], 4.42 µM (active); in [3] it was 6.84 µM (active); in [4], 3.47 µM (active).
Consider `COc1cccc(C2C(C#N)=C(N)OC3=C2C(=O)CCC3)c1OC(=O)c1ccco1` (configuration not stated), for which the EC50 in assay [8] and in assay [9] was > 300 µM (not active) in each case.
